Measurements from ChEMBL document CHEMBL1201862, “PubChem BioAssay data set” (2004).
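Grown in 96-well plates, cells were treated for 48 hours with each compound at five concentrations. Insufficient inhibition: endpoint recorded as highest concentration tested. GI50 marks 50% less growth.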 The source made the active and inactive calls. Cut-off read from the data, not from the text of the source: active = GI50 up to about 1.1 µM and inactive = higher.

Key:
Test in all cases: NCI-60 cell line screen, 48 h
[1] = test system: A498
[2] = test system: M14
[3] = test system: UACC-62
[4] = test system: RXF 393
[5] = test system: BT-549
[6] = test system: DU-145
[7] = test system: OVCAR-3
[8] = test system: U-251
[9] = test system: OVCAR-5
[10] = test system: NCI/ADR-RES
[11] = test system: HCT-116
[12] = test system: PC-3
[13] = test system: KM12
[14] = test system: CAKI-1
[15] = test system: SK-MEL-2
[16] = test system: 786-0
[17] = test system: NCI-H522
[18] = test system: HT-29
[19] = test system: MOLT-4
[20] = test system: HL-60

Row | SMILES | GI50 [1] | GI50 [2] | GI50 [3] | GI50 [4] | GI50 [5] | GI50 [6] | GI50 [7] | GI50 [8] | GI50 [9] | GI50 [10] | GI50 [11] | GI50 [12] | GI50 [13] | GI50 [14] | GI50 [15] | GI50 [16] | GI50 [17] | GI50 [18] | GI50 [19] | GI50 [20]
1 | NCCSc1nc(-c2ccccc2)c(-c2ccccc2)o1 | > 100 µM (inactive) | > 100 µM (inactive) | > 100 µM (inactive) | 42.2 µM (inactive) | > 100 µM (inactive) | > 100 µM (inactive) | > 100 µM (inactive) | > 100 µM (inactive) | > 100 µM (inactive) | > 100 µM (inactive) | 37.1 µM (inactive) | > 100 µM (inactive) | > 100 µM (inactive) | > 100 µM (inactive) | > 100 µM (inactive) | 32.1 µM (inactive) | 29.6 µM (inactive) | 31.7 µM (inactive) |  | 
2 | O=C(N/N=C/C=C/c1ccc([N+](=O)[O-])o1)c1ccc(C(=O)N/N=C/C=C/c2ccc([N+](=O)[O-])o2)cc1 | > 100 µM (inactive) | 14.8 µM (inactive) | > 86.3 µM (inactive) | 25.9 µM (inactive) | > 100 µM (inactive) | > 47 µM (inactive) | 31.7 µM (inactive) | 17.3 µM (inactive) | > 100 µM (inactive) | 36.7 µM (inactive) | 12.7 µM (inactive) | > 30.5 µM (inactive) | > 100 µM (inactive) | 38.6 µM (inactive) | > 69.2 µM (inactive) | 20.1 µM (inactive) | 24.3 µM (inactive) | 72.9 µM (inactive) | 5.42 µM (inactive) | 19.8 µM (inactive)
3 | O[C@H]1[C@@H]2OC[C@@H](O)[C@H](OCc3ccccc3)[C@@](COCc3ccccc3)(O2)[C@@H]1OCc1ccccc1 | 17.5 µM (inactive) | 17.3 µM (inactive) | 11.4 µM (inactive) | 20.2 µM (inactive) | 17.7 µM (inactive) | 18.5 µM (inactive) | 5.46 µM (inactive) | 16 µM (inactive) | 15.1 µM (inactive) | 16.7 µM (inactive) | 20.1 µM (inactive) | 13.2 µM (inactive) | 17.2 µM (inactive) | < 0.01 µM (active) | 15.2 µM (inactive) | 19.9 µM (inactive) | 13.7 µM (inactive) | 15.2 µM (inactive) | 30.7 µM (inactive) | 32.6 µM (inactive)
4 | O=c1c2cc(-c3ccccc3)cnc2sn1-c1ccc(Br)cc1 | > 100 µM (inactive) | > 100 µM (inactive) | > 100 µM (inactive) | > 100 µM (inactive) | > 100 µM (inactive) | > 100 µM (inactive) | 37 µM (inactive) | > 100 µM (inactive) | > 100 µM (inactive) | > 100 µM (inactive) | > 100 µM (inactive) | > 100 µM (inactive) | > 100 µM (inactive) | > 100 µM (inactive) | > 100 µM (inactive) | > 100 µM (inactive) | 47.5 µM (inactive) | > 100 µM (inactive) | > 100 µM (inactive) | > 100 µM (inactive)
5 | O=C1c2cc3c(cc2CC12Cc1cc4c(cc1C2=O)CCCC4)CCCC3 | > 100 µM (inactive) | 65.2 µM (inactive) | 58.2 µM (inactive) | 16.4 µM (inactive) | 56.4 µM (inactive) | 66.1 µM (inactive) | 23.7 µM (inactive) | 30.8 µM (inactive) | > 100 µM (inactive) | 24.6 µM (inactive) | 62.7 µM (inactive) | 40.2 µM (inactive) | > 100 µM (inactive) |  | 75.9 µM (inactive) | 21.1 µM (inactive) | > 100 µM (inactive) | > 100 µM (inactive) | > 100 µM (inactive) | 34.9 µM (inactive)
6 | O=C1CC2(CCC(O)(c3ccc(Cl)cc3)C(C(=O)c3ccc(Cl)cc3)C2)C(=O)c2ccccc2N1 (centres undefined) | 17.3 µM (inactive) | 18.2 µM (inactive) | 14.8 µM (inactive) | 4.89 µM (inactive) | 19.7 µM (inactive) | 6.82 µM (inactive) | > 100 µM (inactive) | 2.6 µM (inactive) | > 71 µM (inactive) | 11.6 µM (inactive) | 6.17 µM (inactive) | > 100 µM (inactive) | > 100 µM (inactive) | 9.62 µM (inactive) | > 100 µM (inactive) | 1.34 µM (inactive) | 11.7 µM (inactive) | 3.89 µM (inactive) | 2.12 µM (inactive) | 11 µM (inactive)
7 | CN(C)c1ccc(C2C(Cl)C(=O)N2NC(=O)c2c(Cl)c(Cl)c(Cl)c(Cl)c2-c2nc3ccccc3[nH]2)cc1 (centres undefined) | 22.3 µM (inactive) | 13.3 µM (inactive) | 12.7 µM (inactive) | 2.48 µM (inactive) | 13.6 µM (inactive) | 6.92 µM (inactive) | 19.4 µM (inactive) |  | 31.3 µM (inactive) | 21.6 µM (inactive) | 5.2 µM (inactive) | 12.9 µM (inactive) | 17.9 µM (inactive) | 15.6 µM (inactive) | 21.8 µM (inactive) | 2.56 µM (inactive) | 2.79 µM (inactive) | 22.3 µM (inactive) | 2.68 µM (inactive) | 3.3 µM (inactive)
8 | CN(C)CCCN1C(=S)N(CCCN(C)C)c2c3cc(O)ccc3nc3c([N+](=O)[O-])ccc1c23 | 0.839 µM (active) | 7.05 µM (inactive) | 5.13 µM (inactive) | 3.03 µM (inactive) | 11.7 µM (inactive) | 2.47 µM (inactive) | 1.68 µM (inactive) | 2.46 µM (inactive) | 11.8 µM (inactive) | 6.07 µM (inactive) | 1 µM (active) | 2.05 µM (inactive) | 2.7 µM (inactive) | 1.66 µM (inactive) | 6.47 µM (inactive) | 1.07 µM (active) | 1.32 µM (inactive) | 0.757 µM (active) | 0.0953 µM (active) | 3.09 µM (inactive)
9 | COC1C(O)=C2C(=O)OC(C)(O)/C=C/C=C\C=C/C=C/C(c3ccccc3)NC(=O)/C=C/C=C/C=C/C=C/C2(C)C1O (centres undefined) | 0.0137 µM (active) | 0.0792 µM (active) | 0.114 µM (active) | 0.0184 µM (active) | 0.0128 µM (active) | 0.00533 µM (active) | 0.0445 µM (active) | 0.00522 µM (active) | 0.129 µM (active) | 0.00861 µM (active) | 0.00403 µM (active) | 0.00339 µM (active) | 0.00679 µM (active) | 0.0175 µM (active) | 0.0361 µM (active) | 0.00787 µM (active) | < 0.001 µM (active) | < 0.001 µM (active) | 0.0102 µM (active) | 0.00348 µM (active)
10 | CC(=O)OCC(OC(C)=O)C(OC(C)=O)C(OC(C)=O)C(C=NN(C(C)=O)S(=O)(=O)c1ccc(/C=C2\NC(=O)N(C)C2=O)cc1)OC(C)=O (centres undefined) | 59.7 µM (inactive) | 69.2 µM (inactive) | 13.6 µM (inactive) | 20.5 µM (inactive) | 33.9 µM (inactive) | 33 µM (inactive) | 41.4 µM (inactive) | 32.1 µM (inactive) | 83.2 µM (inactive) | > 100 µM (inactive) | 16.9 µM (inactive) | 40.1 µM (inactive) | 42.4 µM (inactive) | 40.2 µM (inactive) | 31.5 µM (inactive) | 22.1 µM (inactive) | 23.7 µM (inactive) | 34.9 µM (inactive) |  | 
11 | COc1cccc2c(N)c3cccc(C(=O)NCCN(C)C)c3nc12 | 0.281 µM (active) | 0.432 µM (active) | 0.357 µM (active) | 0.213 µM (active) | 1.19 µM (inactive) | 0.261 µM (active) | 0.369 µM (active) | 0.159 µM (active) | 0.344 µM (active) | 0.979 µM (active) | 0.0748 µM (active) | 0.326 µM (active) | 0.252 µM (active) | 0.103 µM (active) | 0.447 µM (active) | 0.0339 µM (active) | 0.0241 µM (active) | 0.053 µM (active) | < 0.01 µM (active) | 
12 | CCOC(=O)c1nc2ccc(C(F)(F)F)cc2nc1Nc1ccc(OC)c(OC)c1 | > 100 µM (inactive) | > 100 µM (inactive) | > 100 µM (inactive) | > 100 µM (inactive) | 97.9 µM (inactive) | > 100 µM (inactive) | > 100 µM (inactive) |  | > 100 µM (inactive) | > 100 µM (inactive) | 94.4 µM (inactive) | > 100 µM (inactive) | > 100 µM (inactive) | 24.5 µM (inactive) |  | 26.5 µM (inactive) | > 100 µM (inactive) | > 100 µM (inactive) | > 100 µM (inactive) | > 100 µM (inactive)
13 | CC1(C)C2CCC3=C(CCC4(C)C5C[C@](C)(C(=O)O)CC[C@]5(C)CC[C@]34C)[C@@]2(C)CC[C@@H]1O (some centres undefined) | 26.5 µM (inactive) | 17.5 µM (inactive) | 19.3 µM (inactive) | 21.6 µM (inactive) | 20.1 µM (inactive) | 18.3 µM (inactive) | 15.9 µM (inactive) | 13.1 µM (inactive) | 49.8 µM (inactive) | 17.9 µM (inactive) | 16.6 µM (inactive) | 14.8 µM (inactive) | 15.4 µM (inactive) | 18.9 µM (inactive) |  | 15.9 µM (inactive) | 20 µM (inactive) | 17.5 µM (inactive) | 15.8 µM (inactive) | 18.1 µM (inactive)
14 | CC(=O)Nc1ccc(-c2nc3ccccc3s2)cc1Br | 4.54 µM (inactive) | 77.4 µM (inactive) | > 72.1 µM (inactive) | 23.4 µM (inactive) | 29.1 µM (inactive) | 48.2 µM (inactive) | 0.305 µM (active) | 46 µM (inactive) |  | 73.3 µM (inactive) | 20.5 µM (inactive) | > 100 µM (inactive) | > 100 µM (inactive) | 25.5 µM (inactive) | > 100 µM (inactive) | 35.6 µM (inactive) | > 72.3 µM (inactive) | > 63.7 µM (inactive) | > 100 µM (inactive) | > 100 µM (inactive)
